Test results: US10392383B2, “3-(1H-benzo[d]imidazol-2-yl)-1H-pyrazolo[4,3-b]pyridines and therapeutic uses thereof” (Samumed, LLC, priority 2015, dated 2019)

What was measured:
Type in all cases: cell-based
[1] = tested on: primary human fibroblasts derived from IPF patients (LL29 cells) treated with TGF-β1; experiment: Inhibition of the fibrotic process: αSMA staining in TGF-β1-treated LL29 fibroblasts; settings: Fibroblast; for EC50: 96 h, LL29 fibroblasts treated with TGF-β1 (20 ng/mL), 4 days, Table 4; for inhibition at 10 µM: LL29 fibroblasts treated with TGF-β1, Table 4, read-out: percent inhibition at 10 μM (given in parentheses for EC50 >10 μM)
How it was run: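 EC50 from triplicate-well dose-response fits of % αSMA-positive cells, normalized to TGF-β1-stimulated DMSO controls, with SYTOX-positive dead cells excluded. LL29 IPF fibroblasts received compound at 10 μM–1.87 nM (0.1% DMSO) plus 20 ng/mL TGF-β1 for 4 days in 1% FBS medium; above 10 μM, % inhibition at 10 μM reported.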

[2] = tested on: IL-6 (THP-1 cells); experiment: IL-6 inhibition in LPS-stimulated THP-1 monocytes (HTRF); settings: Homo sapiens, IL-6 HTRF; for EC50: 500 ng/mL LPS, Table 6; for inhibition at 10 µM: LPS, Table 6, read-out: percent inhibition at 10 μM (given in parentheses for EC50 >10 μM)
How it was run: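 THP-1 cells in 1% FBS pre-incubated 2 h with compound (10-point 1:3 series from 10 μM, 0.1% DMSO), then stimulated with 500 ng/mL LPS for 22 h at 37 °C. IL-6 measured by HTRF 665/620 ratio, normalized to DMSO; EC50 by four-parameter fit, or % inhibition at 10 μM when EC50 >10 μM.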

[3] = tested on: SW480 colon cancer cells; experiment: Cell viability assay (CellTiter-Blue) in SW480 cells; settings: Homo sapiens, 96 h, four days; for EC50: CellTiter-Blue, 10 μM to 0.0045 μM; for inhibition at 10 µM: read-out: percent inhibition at 10 μM (given for EC50 of >10 μM)
How it was run: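 4-day exposure, 37 °C/5% CO2; ~2×10^3 SW480 cells/well; 8-pt 1:3 curve, 10–0.0045 μM, duplicates vs DMSO controls. Resazurin→resorufin fluorescence readout, ~3 h. EC50 by nonlinear fit; if >10 μM, % inhibition at 10 μM reported.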

Compound	EC50 [1]	EC50 [2]	EC50 [3]	inhibition at 10 µM [2]	inhibition at 10 µM [3]	inhibition at 10 µM [1]
Cc1ncc(-c2ccc3[nH]nc(-c4nc5c(-c6cc(F)cc(NCCN(C)C)c6)cccc5[nH]4)c3n2)n1C [Compound 781, N^1-(3-(2-(5-(1,2-Dimethyl-1H-imidazol-5-yl)-1H-pyrazolo[4,3-b]pyridin-3-yl)-1H-benzo[d]imidazol-4-yl)-5-fluorophenyl)-N^2,N^2-dimethylethane-1,2-diamine]	917 nM	164 nM	549 nM			
CN(C)CCNc1cc(F)cc(-c2cccc3[nH]c(-c4n[nH]c5ccc(-c6cncc(OCCN7CCCC7)c6)nc45)nc23)c1 [Compound 786, N^1-(3-Fluoro-5-(2-(5-(5-(2-(pyrrolidin-1-yl)ethoxy)pyridin-3-yl)-1H-pyrazolo[4,3-b]pyridin-3-yl)-1H-benzo[d]imidazol-4-yl)phenyl)-N^2,N^2-dimethylethane-1,2-diamine]	1770 nM	2070 nM	3560 nM			
CN(C)CCNc1cc(F)cc(-c2cccc3[nH]c(-c4n[nH]c5ccc(-c6cncc(OCc7ccccc7)c6)nc45)nc23)c1 [Compound 790, N^1-(3-(2-(5-(5-(Benzyloxy)pyridin-3-yl)-1H-pyrazolo[4,3-b]pyridin-3-yl)-1H-benzo[d]imidazol-4-yl)-5-fluorophenyl)-N^2,N^2-dimethylethane-1,2-diamine]	798 nM	3320 nM	722 nM			
CN(C)CCNc1cc(F)cc(-c2cccc3[nH]c(-c4n[nH]c5ccc(-c6cnccn6)nc45)nc23)c1 [Compound 792, N^1-(3-Fluoro-5-(2-(5-(pyrazin-2-yl)-1H-pyrazolo[4,3-b]pyridin-3-yl)-1H-benzo[d]imidazol-4-yl)phenyl)-N^2,N^2-dimethylethane-1,2-diamine]	1900 nM	686 nM	4230 nM			
CN(C)CC(=O)Nc1cncc(-c2ccc3[nH]nc(-c4nc5c(-c6cccc(F)c6)cccc5[nH]4)c3n2)c1 [Compound 969, 2-(Dimethylamino)-N-(5-(3-(4-(3-fluorophenyl)-1H-benzo[d]imidazol-2-yl)-1H-pyrazolo[4,3-b]pyridin-5-yl)pyridin-3-yl)acetamide]	2070 nM	> 10000 nM	> 10000 nM	39%	25.3%	
COc1cccc(-c2cccc3[nH]c(-c4n[nH]c5ccc(-c6cccnc6)nc45)nc23)c1 [Compound 994, 3-(4-(3-Methoxyphenyl)-1H-benzo[d]imidazol-2-yl)-5-(pyridin-3-yl)-1H-pyrazolo[4,3-b]pyridine]	1050 nM	> 10000 nM	5940 nM	32.2%		
COc1cccc(-c2cccc3[nH]c(-c4n[nH]c5ccc(-c6cncc(NC(=O)Cc7ccccc7)c6)nc45)nc23)c1 [Compound 1000, N-(5-(3-(4-(3-Methoxyphenyl)-1H-benzo[d]imidazol-2-yl)-1H-pyrazolo[4,3-b]pyridin-5-yl)pyridin-3-yl)-2-phenylacetamide]	2270 nM	812 nM	4130 nM			
COc1cccc(-c2cccc3[nH]c(-c4n[nH]c5ccc(-c6cncc(NC(=O)CC(C)(C)C)c6)nc45)nc23)c1 [Compound 1006, N-(5-(3-(4-(3-methoxyphenyl)-1H-benzo[d]imidazol-2-yl)-1H-pyrazolo[4,3-b]pyridin-5-yl)pyridin-3-yl)-3,3-dimethylbutanamide]	> 10000 nM	> 10000 nM	5910 nM	23.8%		32.2%
COc1cccc(-c2cccc3[nH]c(-c4n[nH]c5ccc(-c6cncc(NC(=O)C7CCCCC7)c6)nc45)nc23)c1 [Compound 1012, N-(5-(3-(4-(3-Methoxyphenyl)-1H-benzo[d]imidazol-2-yl)-1H-pyrazolo[4,3-b]pyridin-5-yl)pyridin-3-yl)cyclohexanecarboxamide]	> 10000 nM	> 10000 nM	> 10000 nM	33%	4.6%	36.9%
COc1cccc(-c2cccc3[nH]c(-c4n[nH]c5ccc(-c6cn[nH]c6)nc45)nc23)c1 [Compound 1020, 3-(4-(3-Methoxyphenyl)-1H-benzo[d]imidazol-2-yl)-5-(1H-pyrazol-4-yl)-1H-pyrazolo[4,3-b]pyridine]	372 nM	> 10000 nM	> 10000 nM	23.7%	12.6%	
COc1cccc(-c2cccc3[nH]c(-c4n[nH]c5ccc(-c6cncc(OC7CCNCC7)c6)nc45)nc23)c1 [Compound 1025, 3-(4-(3-Methoxyphenyl)-1H-benzo[d]imidazol-2-yl)-5-(5-(piperidin-4-yloxy)pyridin-3-yl)-1H-pyrazolo[4,3-b]pyridine]	2110 nM	4490 nM	5740 nM			
COc1cccc(-c2cccc3[nH]c(-c4n[nH]c5ccc(-c6cncc(O)c6)nc45)nc23)c1 [Compound 1030, 5-(3-(4-(3-Methoxyphenyl)-1H-benzo[d]imidazol-2-yl)-1H-pyrazolo[4,3-b]pyridin-5-yl)pyridin-3-ol]	915 nM	5.5 nM	1010 nM			
CC(C)CC(=O)Nc1cncc(-c2ccc3[nH]nc(-c4nc5c(-c6ccc(Cl)s6)cccc5[nH]4)c3n2)c1 [Compound 1037, N-(5-(3-(4-(5-Chlorothiophen-2-yl)-1H-benzo[d]imidazol-2-yl)-1H-pyrazolo [4,3-b]pyridin-5-yl)pyridin-3-yl)-3-methylbutanamide]	1390 nM	> 10000 nM	9680 nM	19.5%		
CC(C)(C)C(=O)Nc1cncc(-c2ccc3[nH]nc(-c4nc5c(-c6ccc(Cl)s6)cccc5[nH]4)c3n2)c1 [Compound 1043, N-(5-(3-(4-(5-chlorothiophen-2-yl)-1H-benzo[d]imidazol-2-yl)-1H-pyrazolo[4,3-b]pyridin-5-yl)pyridin-3-yl)pivalamide]	2330 nM	> 10000 nM	5270 nM	16.9%		
Clc1ccc(-c2cccc3[nH]c(-c4n[nH]c5ccc(-c6cncc(CN7CCCC7)c6)nc45)nc23)s1 [Compound 1049, 3-(4-(5-Chlorothiophen-2-yl)-1H-benzo[d]imidazol-2-yl)-5-(5-(pyrrolidin-1-ylmethyl)pyridin-3-yl)-1H-pyrazolo[4,3-b]pyridine]	733 nM	> 10000 nM	584 nM	48.3%		
O=C(Nc1cncc(-c2ccc3[nH]nc(-c4nc5c(-c6ccc(Cl)s6)cccc5[nH]4)c3n2)c1)C1CCC1 [Compound 1056, N-(5-(3-(4-(5-Chlorothiophen-2-yl)-1H-benzo[d]imidazol-2-yl)-1H-pyrazolo [4,3-b]pyridin-5-yl)pyridin-3-yl)cyclobutanecarboxamide]	2360 nM	> 10000 nM	> 10000 nM	47.8%	0%	
NC1CN(c2cncc(-c3ccc4[nH]nc(-c5nc6c(-c7ccc(Cl)s7)cccc6[nH]5)c4n3)n2)C1 [Compound 1068, 1-(6-(3-(4-(5-Chlorothiophen-2-yl)-1H-benzo[d]imidazol-2-yl)-1H-pyrazolo [4,3-b]pyridin-5-yl)pyrazin-2-yl)azetidin-3-amine]	1710 nM	> 10000 nM	953 nM	42.7%		
